Laboratory results reported in patent US4241069A, “3-Methylene flavanones and 3-methylene chromanones” (Miles Laboratories, Inc., priority 1979, dated 1980).
Values after ≈ are worked out from the molar mass of the structure shown.

Key:
[1] = tested on: Propionobacterium acnes ATCC 6919; assay: MIC, agar incorporation method, anaerobic; format: cell-based; settings: 48 hours at 35° C., GasPak Anaerobic Jar, read-out: Minimal Inhibitory Concentration
Method: (§1) The compounds of the present invention were tested for their ability to inhibit the growth of microorganisms by in vitro tests. Generally the in vitro tests involve growing representative microorganisms under conditions favorable to such growth and measuring the effectiveness of one or more compounds in inhibiting or destroying the growth of the microorganisms. The microorganisms used include representative bacteria, fungi and yeasts.
(§2) A representative selection of the test microorganisms were cultured in a nutrient broth, such as, for example, Eugon, commercially available from Difco Laboratories, Detroit, Michigan. Bacteria and Candida species were cultured for 24 hours at 32°-37° C. and fungi were cultured for approximately one week at 32° C. Inocula were prepared by suspending the growth or spores from a slant culture in sufficient sterile normal (0.9 percent) saline or Eugon broth, to yield cell or spore concentrations of 1,000,000 cells per milliliter. Anaerobic bacteria were cultured for 48-72 hours at 32°-37° C. in a thioglycollate containing medium, for example, Fluid Thioglycollate medium or NIH thioglycollate broth, commercially available from Difco Laboratories.
(§3) The compounds of the present invention were tested for activity against bacteria, yeasts and fungi by the agar incorporation method described below. MA 1347, 3-(dimethylaminomethyl)flavanone (disclosed in U.S. Pat. No. 3,753,985) was used as a comparative standard along with controls for each solvent system used.
(§4) A series of agar plates containing two-fold dilutions of each compound to be tested, ranging in concentration from 100 to 3.1 mcg/ml of agar medium was prepared. Aliquots of each concentration (100, 50, 25, 12.5, 6.2, and 3.1) prepared in N,N-dimethylformamide or 50 percent aqueous DMF were added to liquid Eugon agar at 48° C. (one part test solution to 100 parts agar). In some cases, tests with further dilutions to 0.125 mcg/ml were conducted. The agar medium, containing the 3-methylene flavanone or chromanone compound to be tested, was then dispensed into petri dishes and allowed to solidify. The solidified plates were kept overnight at room temperatures to dry the surface of the agar.
(§5) The agar plates were then inoculated with a drop of the standardized cell or spore suspension. Inoculated plates were incubated at 32° C. The inhibition end-point or minimum inhibitory concentration (MIC) shown in Table D represent the lowest concentration of test compound which inhibited the growth of the microorganism. Visual determination of growth inhibition was used. Bacteria and yeast end-points were determined after 24 hours incubation; molds, dermatophytes and anaerobes after 48-72 hours incubation. MIC values shown as ranges represent the extremes found in repeat assays. Virtually all such values were written plus or minus one dilution, the accepted variation of a two-fold dilution assay.
*Anaerobic: 48 hours incubation at 35° C. GasPak Anaerobic Jar

S. aureus NRRL B2747 = assay: MIC, agar incorporation method; format: cell-based, Staphylococcus aureus; settings: Staphylococcus aureus, NRRLB2747, 32° C., 24 hours, read-out: Minimal Inhibitory Concentration
Method: as §1, §2, §3, §4, §5

[2] = tested on: Aspergillus niger ATCC 16404; assay: MIC, agar incorporation method; format: cell-based; settings: ATCC16404, 32° C., 48-72 hours, read-out: Minimal Inhibitory Concentration
Method: as §1, §2, §3, §4, §5

[3] = tested on: Pseudomonas aeruginosa ATCC 14502; assay: MIC, agar incorporation method; format: cell-based; settings: ATCC14502, 32° C., 24 hours, read-out: Minimal Inhibitory Concentration
Method: as §1, §2, §3, §4, §5

C. tropicalis NRRL Y1410 = assay: MIC, agar incorporation method; format: cell-based; settings: Candida tropicalis, NRRLY1410; 32° C., 24 hours; read-out: Minimal Inhibitory Concentration
Method: as §1, §2, §3, §4, §5

[4] = tested on: Microsporum gypseum ATCC 14683; assay: MIC, agar incorporation method; format: cell-based; settings: Nannizzia gypsea, ATCC14683, 32° C., 48-72 hours; read-out: Minimal Inhibitory Concentration
Method: as §1, §2, §3, §4, §5

T. rubrum ATCC 10218 = assay: MIC, agar incorporation method; format: cell-based; settings: Trichophyton rubrum, ATCC10218; 32° C., 48-72 hours; read-out: Minimal Inhibitory Concentration
Method: as §1, §2, §3, §4, §5

[5] = tested on: Escherichia coli ATCC 8739; assay: MIC, agar incorporation method; format: cell-based; settings: ATCC8739, 32° C., 24 hours, read-out: Minimal Inhibitory Concentration
Method: as §1, §2, §3, §4, §5

T. mentagrophytes TM-2 = assay: MIC, agar incorporation method; format: cell-based; settings: Trichophyton mentagrophytes, TM2, 32° C., 48-72 hours, read-out: Minimal Inhibitory Concentration
Method: as §1, §2, §3, §4, §5

[6] = tested on: Trichophyton mentagrophytes ATCC 4807; assay: MIC, agar incorporation method; format: cell-based; settings: ATCC4807, 32° C., 48-72 hours, read-out: Minimal Inhibitory Concentration
Method: as §1, §2, §3, §4, §5

C. krusei VM 29B = assay: MIC, agar incorporation method; format: cell-based; settings: Pichia kudriavzevii, VM29B; 32° C., 24 hours; read-out: Minimal Inhibitory Concentration
Method: as §1, §2, §3, §4, §5

T. mentagrophytes CDC = assay: MIC, agar incorporation method; format: cell-based; settings: Trichophyton mentagrophytes, 32° C., 48-72 hours, read-out: Minimal Inhibitory Concentration
Method: as §1, §2, §3, §4, §5

C. guillermondii VM 42 = assay: MIC, agar incorporation method; format: cell-based; settings: 32° C., 24 hours; read-out: Minimal Inhibitory Concentration
Method: as §1, §2, §3, §4, §5

[7] = tested on: Staphylococcus aureus ATCC 6538; assay: MIC, agar incorporation method; format: cell-based; settings: Staphylococcus aureus, ATCC6538; S. aureus ATCC 6538; 32° C., 24 hours; read-out: Minimal Inhibitory Concentration
Method: as §1, §2, §3, §4, §5

[8] = tested on: Streptococcus faecalis ATCC 10541; assay: MIC, agar incorporation method; format: cell-based; settings: Enterococcus faecalis, ATCC10541; 32° C., 24 hours; read-out: Minimal Inhibitory Concentration
Method: as §1, §2, §3, §4, §5

[9] = tested on: Candida albicans ATCC 10231; assay: MIC, agar incorporation method; format: cell-based; settings: ATCC10231, C. albicans ATCC 10231, 32° C., 24 hours, read-out: Minimal Inhibitory Concentration
Method: as §1, §2, §3, §4, §5

A. fumigatus NRRL 165 = assay: MIC, agar incorporation method; format: cell-based; settings: Aspergillus fumigatus, NRRL165, 32° C., 48-72 hours, read-out: Minimal Inhibitory Concentration
Method: as §1, §2, §3, §4, §5

C. albicans NRRL Y-477 = assay: MIC, agar incorporation method; format: cell-based; settings: Candida albicans, NRRLY477, 32° C., 24 hours, read-out: Minimal Inhibitory Concentration
Method: as §1, §2, §3, §4, §5

A. fumigatus NRRL 163 = assay: MIC, agar incorporation method; format: cell-based; settings: Aspergillus fumigatus, NRRL163, NRRL 163; 32° C., 48-72 hours; read-out: Minimal Inhibitory Concentration
Method: as §1, §2, §3, §4, §5

SMILES	MIC [1]	MIC (S. aureus NRRL B2747)	MIC [2]	MIC [3]	MIC (C. tropicalis NRRL Y1410)	MIC [4]	MIC (T. rubrum ATCC 10218)	MIC [5]	MIC (T. mentagrophytes TM-2)	MIC [6]	MIC (C. krusei VM 29B)	MIC (T. mentagrophytes CDC)	MIC (C. guillermondii VM 42)	MIC [7]	MIC [8]	MIC [9]	MIC (A. fumigatus NRRL 165)	MIC (C. albicans NRRL Y-477)	MIC (A. fumigatus NRRL 163)
C=C1C(=O)c2ccccc2OC1c1ccc(C(C)(C)C)cc1 (stereo not drawn) [Ex. 14, 4'-t-butyl-3-methylene flavanone]	≤ 100 µg/mL	3.1 to 6.2 µg/mL (≈ 10.6 to 21.2 µM)	100 µg/mL (≈ 342 µM)	> 100 µg/mL	> 100 µg/mL	12.5 to 25 µg/mL (≈ 42.8 to 85.5 µM)	12.5 to 25 µg/mL (≈ 42.8 to 85.5 µM)	> 100 µg/mL	25 µg/mL (≈ 85.5 µM)	25 µg/mL (≈ 85.5 µM)	50 µg/mL (≈ 171 µM)	25 µg/mL (≈ 85.5 µM)	> 100 µg/mL	≤ 3.1 µg/mL	25 to 50 µg/mL (≈ 85.5 to 171 µM)	–	–	–	–
C=C1C(=O)c2ccccc2OC1c1ccc(C#N)cc1 (stereo not drawn) [Ex. 16, 4'-cyano-3-methylene flavanone]	–	12.5 µg/mL (≈ 47.8 µM)	50 µg/mL (≈ 191 µM)	> 100 µg/mL	50 µg/mL (≈ 191 µM)	12.5 µg/mL (≈ 47.8 µM)	6.2 µg/mL (≈ 23.7 µM)	> 100 µg/mL	12.5 µg/mL (≈ 47.8 µM)	12.5 µg/mL (≈ 47.8 µM)	50 µg/mL (≈ 191 µM)	25 µg/mL (≈ 95.7 µM)	100 µg/mL (≈ 383 µM)	12.5 µg/mL (≈ 47.8 µM)	100 µg/mL (≈ 383 µM)	50 µg/mL (≈ 191 µM)	100 µg/mL (≈ 383 µM)	50 µg/mL (≈ 191 µM)	–
C=C1C(=O)c2ccc(OC)cc2OC1c1ccc(Cl)cc1 (stereo not drawn) [Ex. 18, 4'-chloro-7-methoxy-3-methylene flavanone]	≤ 100 µg/mL	6.2 µg/mL (≈ 20.6 µM)	25 µg/mL (≈ 83.1 µM)	> 100 µg/mL	> 100 µg/mL	6.2 µg/mL (≈ 20.6 µM)	12.5 µg/mL (≈ 41.6 µM)	> 100 µg/mL	12.5 µg/mL (≈ 41.6 µM)	12.5 µg/mL (≈ 41.6 µM)	25 µg/mL (≈ 83.1 µM)	12.5 µg/mL (≈ 41.6 µM)	> 100 µg/mL	≤ 3.1 µg/mL	50 µg/mL (≈ 166 µM)	50 µg/mL (≈ 166 µM)	–	50 µg/mL (≈ 166 µM)	12.5 µg/mL (≈ 41.6 µM)

The remaining molecules from weak to strong by MIC (S. aureus NRRL B2747), led by results:

MIC [1]	MIC (S. aureus NRRL B2747)	MIC [2]	MIC [3]	MIC (C. tropicalis NRRL Y1410)	MIC [4]	MIC (T. rubrum ATCC 10218)	MIC [5]	MIC (T. mentagrophytes TM-2)	MIC [6]	MIC (C. krusei VM 29B)	MIC (T. mentagrophytes CDC)	MIC (C. guillermondii VM 42)	MIC [7]	MIC [8]	MIC [9]	MIC (A. fumigatus NRRL 165)	MIC (C. albicans NRRL Y-477)	MIC (A. fumigatus NRRL 163)	SMILES
–	6.2 µg/mL (≈ 21.7 µM)	> 100 µg/mL	> 100 µg/mL	> 100 µg/mL	6.2 µg/mL (≈ 21.7 µM)	6.2 µg/mL (≈ 21.7 µM)	> 100 µg/mL	12.5 µg/mL (≈ 43.7 µM)	6.2 µg/mL (≈ 21.7 µM)	50 µg/mL (≈ 175 µM)	12.5 µg/mL (≈ 43.7 µM)	> 100 µg/mL	≤ 3.1 µg/mL	50 µg/mL (≈ 175 µM)	> 100 µg/mL	> 100 µg/mL	100 µg/mL (≈ 349 µM)	–	C=C1C(=O)c2ccccc2OC1c1cccc2ccccc12 (stereo not drawn) [Ex. 23, 3-methylene-2-(1-naphthyl) chromanone]
–	6.2 µg/mL (≈ 22 µM)	50 µg/mL (≈ 178 µM)	> 100 µg/mL	50 µg/mL (≈ 178 µM)	6.2 µg/mL (≈ 22 µM)	6.2 µg/mL (≈ 22 µM)	> 100 µg/mL	6.2 µg/mL (≈ 22 µM)	12.5 µg/mL (≈ 44.4 µM)	50 µg/mL (≈ 178 µM)	12.5 µg/mL (≈ 44.4 µM)	100 µg/mL (≈ 356 µM)	6.2 µg/mL (≈ 22 µM)	50 µg/mL (≈ 178 µM)	50 µg/mL (≈ 178 µM)	100 µg/mL (≈ 356 µM)	50 µg/mL (≈ 178 µM)	–	C=C1C(=O)c2ccccc2OC1c1cccc([N+](=O)[O-])c1 (stereo not drawn) [compound 9, 3'-nitro-3-methylene flavanone]
≤ 100 µg/mL	6.2 µg/mL (≈ 24.8 µM)	25 µg/mL (≈ 99.9 µM)	> 100 µg/mL	25 µg/mL (≈ 99.9 µM)	6.2 µg/mL (≈ 24.8 µM)	6.2 µg/mL (≈ 24.8 µM)	> 100 µg/mL	6.2 µg/mL (≈ 24.8 µM)	6.2 µg/mL (≈ 24.8 µM)	25 µg/mL (≈ 99.9 µM)	6.2 µg/mL (≈ 24.8 µM)	25 µg/mL (≈ 99.9 µM)	6.2 µg/mL (≈ 24.8 µM)	50 µg/mL (≈ 200 µM)	25 µg/mL (≈ 99.9 µM)	–	25 µg/mL (≈ 99.9 µM)	25 µg/mL (≈ 99.9 µM)	C=C1C(=O)c2cc(C)ccc2OC1c1ccccc1 (stereo not drawn) [compound 19, 6-methyl-3-methylene flavanone]
